Measurements as given in PubChem BioAssay AID2060492 (Molecular Pharmacology Branch, DTP, NCI, 2025).

System: 695427-040-R-J1-PDC complex spheroids, viability percent T/C
Test: Anticancer human tumor 695427-040-R-J1-PDC patient-derived colon adenocarcinoma cell line growth inhibition [GQUAD]
Conditions: for IC50: curve of first compound; for viability, T/C: stronger effect = lower value
Excerpt: DNA G-quadruplex Stabilizer Agents in Combinations in Complex Spheroids
A high-throughput screen of multi-cell type tumor spheroids was designed to identify active combinations of DNA G-quadruplex stabilizer agents and targeted small molecules. Complex spheroids include a stromal component modeled by human endothelial cells (HUVEC) and fibroblasts modeled by human mesenchymal stem cells (MSCs). The concentration ranges selected for each drug and investigational agent were based upon clinically achievable concentrations if the clinical Cmax of the agent was known.
Compounds. The drugs and investigational agents: pidnarulex (CX-5461; NSC782164), APTO-253 (NSC789042), BRACO-19 (NSC847499), peposertib (NSC802822), ceralasertib (NSC780249), elimusertib (NSC800525), camonsertib (NSC841442), AZD-1390 (NSC803789), olaparib (NSC753686), talazoparib (NSC767125), ART-558 (NSC835418), sotorasib (NSC818433), MRTX-1133 (NSC836407), SN-38 (NSC673596), topotecan (NSC609699), etoposide (NSC141540), doxorubicin (NSC123127), gemcitabine (NSC613327), 5-fluorouracil (NSC19893), paclitaxel (NSC125973), vemurafenib (NSC761431), panobinostat (NSC761190), R-306465 (JNJ-16241199; NSC773264), adavosertib (NSC754352), TP-3654 (NSC805149), carboplatin (NSC241240), KSQ-4279 (NSC840948), and staurosporine (NSC755774) were obtained from the National Cancer Institute (NCI) Developmental Therapeutics Program Chemical Repository (34). The FDA-approved anticancer drug set is available from the NCI Developmental Therapeutics Program. […] The stock solutions were prepared in dimethyl sulfoxide (DMSO, Sigma-Aldrich, St. Louis, MO, cat. D2650) at 800-fold the tested concentration and stored at -70 degrees C prior to their use. All drugs and investigational agents were tested over a range starting from a high concentration at or near the clinical Cmax and decreasing in half-log increments. If the clinical Cmax for an agent had not been determined, the highest concentration tested was 10 microM.
2.3 Cell Culture. All cells were maintained in an incubator at 37 degrees C and 5% CO2 with 95% humidity. The PDC lines were cultured according to standard operating procedures established by the NCI PDMR. All PDCs were thawed and cultured in Matrigel-coated flasks prepared with a working solution of 1X Ham's F-12 nutrient mix, without supplementation (Invitrogen, cat. 11765054), 100 U/mL penicillin-streptomycin (Invitrogen, cat. 15140122), and 2.5% Matrigel (Corning Inc., cat. 354248) for the first three passages. The 857933-349-R-J2-PDC line was cultured in 6C/Colon 1B media, which includes advanced DMEM/F-12 (Thermo Fisher Scientific, cat. 12634028), 10 mM HEPES (Thermo Fisher Scientific, cat. 15630080), 1X GlutaMAX supplement (Thermo Fisher Scientific, cat. 35050061), 0.1 mg/mL primocin (InvivoGen, cat. ant-pm-2), 10% defined fetal bovine serum, heat inactivated (HyClone Laboratories Inc., cat. SH30070.03HI), 50% L-WRN conditioned media (ATCC, cat. CRL-3276), 1.25 mM N-Acetyl-L-cysteine (Sigma-Aldrich, cat. A9165), 10 mM nicotinamide (Sigma-Aldrich, cat. N0636), 1X B-27 supplement (Thermo Fisher Scientific, cat. 17504044), 1X N-2 supplement (Thermo Fisher Scientific, cat. 17502048), 10 microM Y-27632 dihydrochloride (Tocris Bioscience, cat. 1254), and 50 ng/mL human EGF recombinant protein (Thermo Fisher Scientific, cat. PHG0311). The 485176-168-R4-J1-PDC line was cultured in Panc media, which includes all 6C/Colon 1B media components plus 100 ng/mL human FGF-10 (Thermo Fisher Scientific, cat. 100-26), 500 nM SB-431542 (Selleckchem, cat. S1067), and gastrin (Tocris, cat. 3006).
[…]

[1] = second compound 0.0316 µM, first compound 0.0316 µM
[2] = second compound 0.0316 µM, first compound 0.316 µM
[3] = second compound 0.1 µM, first compound 0.0316 µM
[4] = second compound 0.1 µM, first compound 0.316 µM
[5] = second compound 0.316 µM, first compound 0.0316 µM
[6] = second compound 0.316 µM, first compound 0.316 µM
[7] = second compound 1 µM, first compound 0.0316 µM
[8] = second compound 1 µM, first compound 0.316 µM
[9] = second compound 3.16 µM, first compound 0.0316 µM
[10] = second compound 3.16 µM, first compound 0.316 µM
[11] = second compound 10 µM, first compound 0.0316 µM
[12] = second compound 10 µM, first compound 0.316 µM
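Also: spheroids exposed to compounds for seven days before readout.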

In the case of Cn1ncnc1[C@H]1c2n[nH]c(=O)c3cc(F)cc(c23)N[C@@H]1c1ccc(F)cc1 + Cc1[nH]c2ccc(F)cc2c1-c1nc2c3cccnc3c3ncccc3c2[nH]1, the IC50 (second compound 0.0316 µM) is reported as greater than 316 nM, the IC50 (second compound 0.1 µM) is reported as greater than 316 nM and the IC50 (second compound 0.316 µM) is reported as greater than 316 nM. For the same molecule, the IC50 (second compound 1 µM) was greater than 316 nM, the IC50 (second compound 3.16 µM) was greater than 316 nM and the IC50 (second compound 10 µM) was greater than 316 nM. For the same molecule, the viability, T/C (second compound 0.0316 µM, first compound 0.000999 µM) was 98.9%, the viability, T/C (second compound 0.0316 µM, first compound 0.00316 µM) was 86.2% and the viability, T/C (second compound 0.0316 µM, first compound 0.00999 µM) was 98.2%. For the same molecule, the viability, T/C [1] was 103%, the viability, T/C (second compound 0.0316 µM, first compound 0.0999 µM) was 104% and the viability, T/C [2] was 66.6%. The viability, T/C (second compound 0.1 µM, first compound 0.000999 µM) was 99.1%, the viability, T/C (second compound 0.1 µM, first compound 0.00316 µM) was 93.8% and the viability, T/C (second compound 0.1 µM, first compound 0.00999 µM) was 82%. For the same molecule, the viability, T/C [3] was 79.8%, the viability, T/C (second compound 0.1 µM, first compound 0.0999 µM) was 97.8% and the viability, T/C [4] was 66.8%. For the same molecule, the viability, T/C (second compound 0.316 µM, first compound 0.000999 µM) was 99.7%, the viability, T/C (second compound 0.316 µM, first compound 0.00316 µM) was 84.7% and the viability, T/C (second compound 0.316 µM, first compound 0.00999 µM) was 91.4%. For the same molecule, the viability, T/C [5] was 89.1%, the viability, T/C (second compound 0.316 µM, first compound 0.0999 µM) was 103% and the viability, T/C [6] was 81.9%. The viability, T/C (second compound 1 µM, first compound 0.000999 µM) was 97.4%, the viability, T/C (second compound 1 µM, first compound 0.00316 µM) was 68.8% and the viability, T/C (second compound 1 µM, first compound 0.00999 µM) was 87.5%. For the same molecule, the viability, T/C [7] was 91.3%, the viability, T/C (second compound 1 µM, first compound 0.0999 µM) was 96.1% and the viability, T/C [8] was 68.2%. The viability, T/C (second compound 3.16 µM, first compound 0.000999 µM) was 76.8%, the viability, T/C (second compound 3.16 µM, first compound 0.00316 µM) was 87% and the viability, T/C (second compound 3.16 µM, first compound 0.00999 µM) was 85.3%. For the same molecule, the viability, T/C [9] was 79.9%, the viability, T/C (second compound 3.16 µM, first compound 0.0999 µM) was 83.7% and the viability, T/C [10] was 86%. The viability, T/C (second compound 10 µM, first compound 0.000999 µM) was 70.9%, the viability, T/C (second compound 10 µM, first compound 0.00316 µM) was 56.1% and the viability, T/C (second compound 10 µM, first compound 0.00999 µM) was 88.3%. For the same molecule, the viability, T/C [11] was 80.5%, the viability, T/C (second compound 10 µM, first compound 0.0999 µM) was 82.7% and the viability, T/C [12] was 74.3%.
Nc1ccn(C2OC(CO)C(O)C2(F)F)c(=O)n1 (centres undefined) + Cc1[nH]c2ccc(F)cc2c1-c1nc2c3cccnc3c3ncccc3c2[nH]1 was tested, and the IC50 (second compound 0.0316 µM) was greater than 10000 nM, the IC50 (second compound 0.1 µM) was greater than 10000 nM and the IC50 (second compound 0.316 µM) was greater than 10000 nM. The IC50 (second compound 1 µM) was greater than 10000 nM, the IC50 (second compound 3.16 µM) was 1650 nM and the IC50 (second compound 10 µM) was 1440 nM. It also gave a viability, T/C [1] of 78.4%, a viability, T/C (second compound 0.0316 µM, first compound 0.1 µM) of 74.8% and a viability, T/C [2] of 71.3%. The viability, T/C (second compound 0.0316 µM, first compound 1 µM) was 54.6%, the viability, T/C (second compound 0.0316 µM, first compound 3.16 µM) was 56.4% and the viability, T/C (second compound 0.0316 µM, first compound 10 µM) was 46.7%. For the same molecule, the viability, T/C [3] was 92.2%, the viability, T/C (second compound 0.1 µM, first compound 0.1 µM) was 75.1% and the viability, T/C [4] was 59%. The viability, T/C (second compound 0.1 µM, first compound 1 µM) was 54.1%, the viability, T/C (second compound 0.1 µM, first compound 3.16 µM) was 60.5% and the viability, T/C (second compound 0.1 µM, first compound 10 µM) was 52.1%. It also gave a viability, T/C [5] of 86%, a viability, T/C (second compound 0.316 µM, first compound 0.1 µM) of 70.8% and a viability, T/C [6] of 64.4%. For the same molecule, the viability, T/C (second compound 0.316 µM, first compound 1 µM) was 55.1%, the viability, T/C (second compound 0.316 µM, first compound 3.16 µM) was 66.6% and the viability, T/C (second compound 0.316 µM, first compound 10 µM) was 46.5%. The viability, T/C [7] was 87.3%, the viability, T/C (second compound 1 µM, first compound 0.1 µM) was 64.6% and the viability, T/C [8] was 59.2%. It also gave a viability, T/C (second compound 1 µM, first compound 1 µM) of 57.9%, a viability, T/C (second compound 1 µM, first compound 3.16 µM) of 63.1% and a viability, T/C (second compound 1 µM, first compound 10 µM) of 48.8%. It also gave a viability, T/C [9] of 67.6%, a viability, T/C (second compound 3.16 µM, first compound 0.1 µM) of 55.4% and a viability, T/C [10] of 55.5%. The viability, T/C (second compound 3.16 µM, first compound 1 µM) was 53.3%, the viability, T/C (second compound 3.16 µM, first compound 3.16 µM) was 51.4% and the viability, T/C (second compound 3.16 µM, first compound 10 µM) was 39.8%. The viability, T/C [11] was 63.2%, the viability, T/C (second compound 10 µM, first compound 0.1 µM) was 59.4% and the viability, T/C [12] was 57.8%. For the same molecule, the viability, T/C (second compound 10 µM, first compound 1 µM) was 51%, the viability, T/C (second compound 10 µM, first compound 3.16 µM) was 43% and the viability, T/C (second compound 10 µM, first compound 10 µM) was 47.4%.
